# Reference: patent publication US11752159B2, “Compositions and methods for suppressing or reducing systemic immune response in a subject” (THE TRUSTEES OF THE UNIVERSITY OF PENNSYLVANIA, priority 2015, dated 2023)
# Legend:
# [1] = test system: regulatory T cells (Tregs); test: Topical MC903 on ear skin of wildtype mice, fraction of Tregs in skin, blood and lymphoid organs; assay type: in vivo; conditions: 2 nmol
# From the text: FIGS. 1A-1B comprise graphs relating to topical treatment of B6 mice with EtOH or MC903 (2 nmol) on one ear. FIG. 1A, comprising FACS data and a graph, illustrates the percentage of regulatory T cells (Tregs) in the ear skin homogenate of B6 mice. “Treated” refers to topical administration of MC903 to the ear skin of the B6 mice. “Untreated” refers to topical administration of EtOH to the ear skin of the B6 mice. FIG. 1B comprises graphs illustrating the percentage of Tregs out of CD4+ T cells in the blood, spleen, and peripheral lymph nodes of B6 mice topically treated with MC903. FIG. 2 is a graph illustrating the percentage of Tregs out of CD4+ T cells in the spleen after B6 mice were treated topically or injected intraperitoneally with EtOH or MC903 (2 nmol). Wildtype (WT) mice were treated with vehicle (100% EtOH) or MC903 once a day on the skin of one ear for 7 days. On Day 8, the ear skin of both ears, blood, and secondary lymphoid organs (lymph nodes and spleen) were harvested.
# [2] = test system: thymic stromal lymphopoietin (TSLP); test: Circulating (serum) TSLP level over time after topical MC903; assay type: in vivo, mice; conditions: topical MC903, treatment stopped on Day 7; fell abruptly by Day 9
# From the text: FIG. 3A-3C comprise graphs illustrating data derived from topical treatment of B6 mice with EtOH or MC903 (2 nmol) until […]. Mice were taken at different time points post treatment initiation as indicated. FIG. 3A is a graph illustrating the percentage of Tregs out of CD4+ T cells in the spleen and blood of B6 mice over 18 days. FIG. 3B illustrates the absolute numbers of Tregs in the spleen of B6 mice over 18 days. FIG. 3C illustrates the serum thymic stromal lymphopoietin (TSLP) level change over time in B6 mice over 18 days.
# (§1) Next, the kinetics of the systemic increase in Treg levels was investigated after topical MC903 treatment (treatment stopped on Day 7). The absolute number and the fraction of Tregs increased to a peak between days 6 and 9 and gradually declined thereafter in the spleen and the blood of MC903-treated mice (FIGS. 3A-3B). Circulating TSLP levels peaked at Day 6 and fell abruptly by Day 9 (FIG. 3C).
# [3] = test system: Tregs and conventional CD4+ T cells (Tconvs); test: BrdU incorporation in splenic Tregs and conventional T cells; assay type: in vivo, mice; conditions: spleen, Day 8, topical 2 nmol daily
# From the text: FIGS. 4A-4B comprise graphs illustrating data derived from topical treatment of B6 mice with EtOH or MC903 (2 nmol) daily and BrdU (intraperitoneal injection as a loading dose, followed by administration of drinking water) for the last 3 days. FIG. 4A illustrates Bromodeoxyuridine (BrdU) incorporation in Tregs on Day 8 in the spleen of B6 mice. FIG. 4B illustrates BrdU incorporation in conventional T cells (Tconvs) on Day 8 in the spleen of B6 mice.
# as §1
# Tregs = test: Dosing schedule of chronic topical MC903: circulating Tregs and atopic dermatitis; assay type: in vivo, mice
# From the text: FIG. 11 comprises a graph illustrating data derived from topically treating mice with MC903 (2 nmol on one ear) 3 times/week every other week or with MC903 (2 nmol on one ear) 3 times/week every week (alternating ears every week) for 8 weeks. The % of Tregs out of CD4+ T cells in the blood before (baseline) and after treatment (Weeks 1, 4, 6, and 8) is illustrated. N=3 mice/group. * p<0.05 by Student t-test.
# FIG. 12 comprises a graph illustrating data derived from topically treating mice with EtOH or MC903 (2 nmol) 3 times/week every other week for 10 weeks. The % of Tregs out of CD4+ T cells in the blood before (Day 0) and after treatment (Day 8 and Week 10) is illustrated. N=7 mice/group.
# To test whether chronic MC903 treatment results in sustained increases in Treg numbers, mice were continuously treated with MC903 for more than 2 weeks.
# To avoid this local toxic effect of MC903, alternating ears were treated every week (right ear for 1 week, followed by the left ear for 1 week, then back to the right ear for 1 week, and so on). […] Without wishing to be limited by any theory, the increase in Tregs appeared to be become refractory to the chronic MC903 treatment. Thus, the protocol was modified so that a 1-week rest period (pulse treatment) was given between weekly treatments.
# ApoE KO mice = test: ApoE KO mouse model of atherosclerosis, topical MC903; assay type: in vivo; conditions: high fat Western diet, topical 3 times/week every other week for 10 weeks
# From the text: FIGS. 6A-6B comprise graphs illustrating data derived from topical treatment of ApoE KO mice fed a high-fat Western diet with EtOH or MC903 (2 nmol) 3 times/week every other week for 10 weeks. FIG. 6A illustrates the total cholesterol levels at baseline, at week 3, and week 10 of ApoE KO mice. FIG. 6B illustrates the atherosclerotic plaques difference among ApoE KO mice. The full length of the aorta was removed from the mice at week 10 and stained with Oil Red O dye to detect atherosclerotic plaques. The area occupied by the plaque was calculated and divided by the total area of the aorta (% lesion area). N=7 mice/group. * indicates significance of p<0.01 by T-test.
# The effects of topical application of MC903 on atherosclerotic plaques were investigated. Atherosclerosis is a disease condition where lipid deposition occurs in arterial walls, leading to obstruction of blood flow. Ultimately, these lesions cause morbidity and mortality by affecting blood flow to the heart (myocardial infarction; angina) or the brain (stroke). Although these lesions are formed by cholesterol deposits in patients who have hypercholesterolemia, immune activation is necessary for plaque progression, and Tregs are implicated in dampening the progression of atherosclerosis. It is contemplated that topical MC903 treatment can attenuate plaque progression in atherosclerosis. […]
# NOD mice = test: NOD mouse model of type I diabetes, topical MC903; assay type: in vivo
# From the text: FIGS. 5A-5B comprise graphs illustrating data derived from topical treatment of NOD mice with EtOH or MC903 (2 nmol) 3 times/week every other week at Week 5 of age; treatment was stopped at Week 15 of age. FIG. 5A illustrates the percentage of Tregs out of CD4+ T cells in the blood of NOD mice before (Day 0) and after treatment (Day 8). […] The % of mice with diabetes is plotted over the age of the mice (N=7 mice/group-EtOH; N=8 mice/group-MC903).
# To test whether topical treatment with MC903 would lead to amerilioration of inflammatory disorders, it was tested whether topical application of MC903 protected a mouse against type I diabetes (T1D), using a non-obese diabetes (NOD) mouse model of diabetes. NOD mice were treated 3 times a week with MC903 on alternating ears every week.
# [4] = 3 days (every other day)/week every other week
smiles,measurement,setting,value
"C=C1/C(=C\C=C2/CCC[C@]3(C)[C@@H]([C@H](C)/C=C/[C@@H](O)C4CC4)CC[C@@H]23)C[C@@H](O)C[C@@H]1O [MC903, 26,27-cyclo-22-ene-1α,24S-dihydroxyvitamin D3]",effect on Tregs (spleen) when injected intraperitoneally,[1]; intraperitoneal injection,No effect
same,increase in the fraction of Tregs (% Foxp3+ of CD4+ T cells) in treated ear skin,"[1]; topical once a day on one ear for 7 days, Day 8, compared to EtOH-treated side",about 2 fold
same,time of peak of circulating TSLP levels,[2],6 days
same,BrdU incorporation by Tregs,[3],enhanced
same,BrdU incorporation by conventional CD4+ T cells (Tconvs),[3],no significant increase
same,"atopic inflammation, pulse treatment",Tregs; [4],atopic inflammation was avoided
same,"circulating Treg numbers, pulse treatment",Tregs; [4],increased over a 10 week period
same,"Tregs at Day 8, alternating ear protocol","Tregs; alternating ears every week, Day 8",increased systemically
same,"circulating Tregs at Week 4 of treatment and beyond, alternating ear protocol","Tregs; alternating ears every week, no rest week",not increased
same,atopic dermatitis with alternating ear protocol,Tregs; alternating ears treated every week,minimal atopic dermatitis
same,local toxicity with chronic once/day treatment of more than 1 week,"Tregs; mouse, in vivo",development of atopic dermatitis of the ear skin
same,decrease of % of area occupied by the plaques in the aorta,ApoE KO mice,> 50%
same,total cholesterol levels,ApoE KO mice,did not alter
same,circulating Treg levels,"NOD mice; Day 8 post-treatment, compared to vehicle",increased
same,atopic dermatitis under treatment protocol,"NOD mice; topical 3 times a week on alternating ears, 8 weeks",little to no evidence of atopic dermatitis
same,incidence of T1D (two consecutive blood glucose readings >250 mg/dl),NOD mice; topical MC903 compared to vehicle,significantly attenuated
